# Measurements taken from patent US20020012979A1, “VITAMIN C PRODUCTION IN MICROORGANISMS AND PLANTS” (priority 1998, published 2002).
# Tested on: strain NA45-3 (ATCC 209681)
# Experiment: Effect of magnesium on AA production from substrates by strain NA45-3
# Type: cell-based, Prototheca moriformis
# Conditions: 24 hours; for conversion to AA, effect of magnesium in the resuspension buffer: NA45-3 grown Mg-limited, substrate 20 g/L
Structure (SMILES),"conversion to AA, effect of magnesium in the resuspension buffer","AA accumulation by cells grown under magnesium-sufficient conditions (NA45-3, substrate 20 g/L, regardless of magnesium in resuspension broth)"
O=C[C@@H](O)[C@@H](O)[C@H](O)[C@H](O)CO [D-mannose],unaffected,
O=C1O[C@H]([C@@H](O)CO)[C@@H](O)[C@@H]1O [L-galactono-γ-lactone],unaffected,enhanced
